Data taken from PubChem BioAssay AID248 (DTP/NCI, 2004).
Where “and” joins values, the source holds several entries; their conditions need not be identical. Equal entries are not always repeated. Toxic doses and inconclusive results are not listed. Cut-off read from the data, not from the text of the source: active = T/C of 150% or more; inactive = T/C below 125%.

System: L1210 leukemia ip in BDF1 mice, survival T/C
Assay: NCI In Vivo Anticancer Drug Screen. Data for tumor model L1210 Leukemia (intraperitoneal) in B6D2F1 (BDF1) mice
Conditions: endpoint: mean survival time, higher = longer survival
In short: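 Survival endpoint. Drug-treated group vs vehicle group, expressed as T divided by C. Tumor passaged by transplantation.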

[1] = dose: 100.0 mg/kg/injection, schedule: Q04DX002 (ip), vehicle: Klucel (hydroxypropylcellulose) (HPC)
[2] = dose: 25.0 mg/kg/injection, schedule: Q01DX009 (ip), vehicle: saline with Tween-80
[3] = dose: 50.0 mg/kg/injection, schedule: Q01DX009 (ip), vehicle: saline with Tween-80
[4] = dose: 100.0 mg/kg/injection, schedule: Q04DX003 (ip), vehicle: saline with Tween-80
[5] = dose: 100.0 mg/kg/injection, schedule: Q01DX009 (ip), vehicle: saline with Tween-80
[6] = dose: 200.0 mg/kg/injection, schedule: Q01DX009 (ip), vehicle: saline with Tween-80
[7] = dose: 400.0 mg/kg/injection, schedule: Q01DX009 (ip), vehicle: saline with Tween-80
[8] = dose: 100.0 mg/kg/injection, schedule: Q01DX009 (ip), vehicle: Klucel (hydroxypropylcellulose) (HPC)
[9] = dose: 200.0 mg/kg/injection, schedule: Q01DX009 (ip), vehicle: Klucel (hydroxypropylcellulose) (HPC)
[10] = dose: 200.0 mg/kg/injection, schedule: Q04DX002 (ip), vehicle: Klucel (hydroxypropylcellulose) (HPC)
[11] = dose: 400.0 mg/kg/injection, schedule: Q01DX009 (ip), vehicle: Klucel (hydroxypropylcellulose) (HPC)
[12] = dose: 400.0 mg/kg/injection, schedule: Q04DX002 (ip), vehicle: Klucel (hydroxypropylcellulose) (HPC)
[13] = dose: 100.0 mg/kg/injection, schedule: Q04DX003 (ip), vehicle: Klucel (hydroxypropylcellulose) (HPC)
[14] = dose: 200.0 mg/kg/injection, schedule: Q04DX003 (ip), vehicle: Klucel (hydroxypropylcellulose) (HPC)
[15] = dose: 400.0 mg/kg/injection, schedule: Q04DX003 (ip), vehicle: Klucel (hydroxypropylcellulose) (HPC)
[16] = dose: 200.0 mg/kg/injection, schedule: Q04DX003 (ip), vehicle: saline with Tween-80
[17] = dose: 400.0 mg/kg/injection, schedule: Q04DX003 (ip), vehicle: saline with Tween-80
[18] = dose: 100.0 mg/kg/injection, schedule: Q01DX001 (ip), vehicle: Klucel (hydroxypropylcellulose) (HPC)
[19] = dose: 200.0 mg/kg/injection, schedule: Q01DX001 (ip), vehicle: Klucel (hydroxypropylcellulose) (HPC)
[20] = dose: 400.0 mg/kg/injection, schedule: Q01DX001 (ip), vehicle: Klucel (hydroxypropylcellulose) (HPC)
[21] = dose: 100.0 mg/kg/injection, schedule: Q04DX002 (ip), vehicle: saline with Tween-80
[22] = dose: 200.0 mg/kg/injection, schedule: Q04DX002 (ip), vehicle: saline with Tween-80

Measured: T/C

O=C(O)c1cccc2c1oc1c(O)cccc12
inactive: dose: 25.0 mg/kg/injection, schedule: Q04DX002 (ip), vehicle: Klucel (hydroxypropylcellulose) (HPC) 93 % of control | dose: 50.0 mg/kg/injection, schedule: Q04DX002 (ip), vehicle: Klucel (hydroxypropylcellulose) (HPC) 90 % of control | [1] 93 % of control

Cc1cc(=O)c2c(C)cccc2[nH]1
inactive: dose: 6.25 mg/kg/injection, schedule: Q01DX009 (ip), vehicle: saline sonified 101 % of control | dose: 6.25 mg/kg/injection, schedule: Q04DX003 (ip), vehicle: saline with Tween-80 90 % of control | dose: 12.5 mg/kg/injection, schedule: Q01DX009 (ip), vehicle: saline sonified 99 % of control | dose: 25.0 mg/kg/injection, schedule: Q01DX009 (ip), vehicle: saline sonified 99 % of control | dose: 25.0 mg/kg/injection, schedule: Q04DX003 (ip), vehicle: saline with Tween-80 92 % of control

CCCCCCCCCCCCCCC(F)C(=O)OCC1OC(CO)(OC2OC(CO)C(O)C(O)C2O)C(O)C1O (stereo not given)
inactive: [2] 98 % of control | [3] 100 % of control | [4] 107 % of control

CC(=O)Nc1ccc(Cc2ccc(N=Cc3ccccc3)cc2)cc1
inactive: dose: 100.0 mg/kg/injection, schedule: Q01DX001 (ip), vehicle: saline 101 % of control | dose: 200.0 mg/kg/injection, schedule: Q01DX001 (ip), vehicle: saline 104 % of control | dose: 400.0 mg/kg/injection, schedule: Q01DX001 (ip), vehicle: saline 98 % of control

CCCCCCCCC1SC1CCCCCCCC(=O)OCCCOC(=O)CCCCCCCC1SC1CCCCCCCC (stereo not given)
inactive: [5] 98 % of control | [6] 93 % of control | [7] 96 % of control

O=C1Nc2ncnn2C1=O
inactive: dose: 100.0 mg/kg/injection, schedule: Q01DX005 (ip), vehicle: Klucel (hydroxypropylcellulose) (HPC) 98 % of control | [8] 101 % of control | [1] 93 % of control | dose: 200.0 mg/kg/injection, schedule: Q01DX005 (ip), vehicle: Klucel (hydroxypropylcellulose) (HPC) 98 % of control | [9] 93 % of control | [10] 96 % of control | dose: 400.0 mg/kg/injection, schedule: Q01DX005 (ip), vehicle: Klucel (hydroxypropylcellulose) (HPC) 98 % of control | [11] 101 % of control | [12] 104 % of control

O=C(O)c1ccccc1Cl
inactive: [13] 103 % of control | [14] 108 % of control | [15] 102 % of control

OCCN(CCO)c1cc(O)cc(O)c1
inactive: [5] 98 % of control | [4] 98 % of control | [6] 96 % of control | [16] 91 % of control | [7] 96 % of control | [17] 102 % of control

CCCCc1c(-c2ccccc2)nc(N)[nH]c1=O
inactive: [18] 103 % of control | [19] 102 % of control | [20] 104 % of control

[NH-]C(CC(N)=O)C(=O)O.[NH-]C(CC(N)=O)C(=O)O.[Pd+2] (stereo not given)
inactive: [3] 93 % of control | [5] 101 % of control | [21] 93 % of control | [6] 108 % of control | [22] 97 % of control

O=C1CCCC1CN1CCOCC1 (stereo not given)
inactive: dose: 100.0 mg/kg/injection, schedule: Q01DX009 (ip), vehicle: saline 92 % of control | dose: 200.0 mg/kg/injection, schedule: Q01DX009 (ip), vehicle: saline 96 % of control | dose: 400.0 mg/kg/injection, schedule: Q01DX009 (ip), vehicle: saline 94 % of control

CC(C)CCCC(C)C1CCC2C3CCC4CC(N5CCCC5)=CCC4(C)C3CCC12C (stereo not given)
inactive: dose: 75.0 mg/kg/injection, schedule: Q04DX003 (sc), vehicle: steriod suspending solution 96 % of control | dose: 150.0 mg/kg/injection, schedule: Q04DX003 (sc), vehicle: steriod suspending solution 96 % of control | dose: 300.0 mg/kg/injection, schedule: Q04DX003 (sc), vehicle: steriod suspending solution 102 % of control

COC(=O)c1ccc(C(=O)OC)c(NC(=O)CC(=O)c2ccc([N+](=O)[O-])cc2)c1
inactive: [8] 88 % of control | [13] 101 % of control | [9] 91 % of control | [14] 90 % of control | [11] 91 % of control | [15] 96 % of control

S=C(NCc1ccccc1)c1ccccc1
inactive: [18] 106 % of control | [19] 108 % of control | [20] 104 % of control

CCCNC(=O)Nc1ccc(C)cc1C
inactive: [5] 96 % of control | [4] 97 % of control | [6] 97 % of control | [16] 97 % of control | [7] 100 % of control | [17] 101 % of control

Cc1ccc(SNc2ccccc2)cc1
inactive: [4] 92 % of control | [16] 100 % of control

CC(=O)OC1OC2COC(C)(C)OCC2C(OC(C)=O)C1OC(C)=O (stereo not given)
inactive: dose: 100.0 mg/kg/injection, schedule: Q01DX001 (ip), vehicle: saline with Tween-80 96 % of control | dose: 200.0 mg/kg/injection, schedule: Q01DX001 (ip), vehicle: saline with Tween-80 104 % of control

Cc1ccc(-n2nnnc2N)c(C)c1
inactive: dose: 100.0 mg/kg/injection, schedule: Q04DX003 (ip), vehicle: saline 94 % of control | dose: 200.0 mg/kg/injection, schedule: Q04DX003 (ip), vehicle: saline 91 % of control | dose: 400.0 mg/kg/injection, schedule: Q04DX003 (ip), vehicle: saline 94 % of control

COc1ccc2c(ccc3nc(C)[nH]c(=O)c32)c1
inactive: [18] 91 % of control

O=C(NCCNC(c1ccccc1)C(NCCNC(=O)c1ccccc1)c1ccccc1)c1ccccc1 (stereo not given)
inactive: [2] 94 % of control | [3] 89 % of control | [5] 97 % of control and 89 % of control | [7] 89 % of control

CC(=O)NC1C(Oc2ccccc2)OC(C(O)CO)C1O (stereo not given)
inactive: dose: 100.0 mg/kg/injection, schedule: Q01DX001 (sc), vehicle: saline 108 % of control | dose: 200.0 mg/kg/injection, schedule: Q01DX001 (sc), vehicle: saline 103 % of control | dose: 400.0 mg/kg/injection, schedule: Q01DX001 (sc), vehicle: saline 108 % of control

COc1ccc(CCCCCl)cc1
inactive: dose: 100.0 mg/kg/injection, schedule: Q01DX001 (ip), vehicle: acetone 95 % of control | dose: 200.0 mg/kg/injection, schedule: Q01DX001 (ip), vehicle: acetone 95 % of control | dose: 400.0 mg/kg/injection, schedule: Q01DX001 (ip), vehicle: acetone 96 % of control

CCOc1ccccc1Cl
inactive: [5] 97 % of control | [6] 102 % of control | [7] 95 % of control

CC1(C)OC(C(O)COC(=O)c2ccc([N+](=O)[O-])cc2)C(C(SCc2ccccc2)SCc2ccccc2)O1 (stereo not given)
inactive: dose: 100.0 mg/kg/injection, schedule: Q01DX001 (ip), vehicle: carboxymethylcellulose (CMC) 93 % of control | dose: 200.0 mg/kg/injection, schedule: Q01DX001 (ip), vehicle: carboxymethylcellulose (CMC) 89 % of control | dose: 400.0 mg/kg/injection, schedule: Q01DX001 (ip), vehicle: carboxymethylcellulose (CMC) 95 % of control

O=[N+]([O-])c1ccccc1S/N=C/c1ccccc1O
inactive: [1] 94 % of control | [10] 94 % of control | [12] 105 % of control

COc1ccc(NC(=S)Nc2ccc(Cc3ccc(NC(=S)Nc4ccc(OC)cc4)cc3)cc2)cc1
inactive: [21] 101 % of control | [22] 95 % of control | dose: 400.0 mg/kg/injection, schedule: Q04DX002 (ip), vehicle: saline with Tween-80 88 % of control

C/C(=N\Sc1cccc([N+](=O)[O-])c1)c1ccccc1O
inactive: [1] 105 % of control | [10] 94 % of control | [12] 94 % of control

CSc1nc2c(n1-c1ccccc1)C(=O)C(OS(=O)(=O)c1ccccc1)C(=O)N2 (stereo not given)
inactive: dose: 75.0 mg/kg/injection, schedule: Q01DX001 (ip), vehicle: saline with Tween-80 95 % of control | dose: 150.0 mg/kg/injection, schedule: Q01DX001 (ip), vehicle: saline with Tween-80 98 % of control | dose: 300.0 mg/kg/injection, schedule: Q01DX001 (ip), vehicle: saline with Tween-80 98 % of control
